Reference: ChEMBL document CHEMBL5727290, “6-(5-hydroxy-1H-pyrazol-1-yl)nicotinamide inhibitors of PHD” (2019)

Biological target: Egl nine homolog 1 (Homo sapiens, UniProt Q9GZT9)
Assay: Inhibition Assay: The IC50 values for the PHD2 enzyme (residues 181-417) were determined by mixing increasing amounts of inhibitor with a fixed amount of enzyme (5 nM, final concentration) and Biotin labeled peptide (Biotin-Asp-Leu-Glu-Met-Leu-Ala-Pro-Tyr-Ile-Pro-Met-Asp-Asp-Asp-Phe-Gln-Leu, 1 uM final concentration) and 2-Oxyglutarate (2 uM final concentration) in 50 mM HEPES, 50 mM KCl, 0.5 mM TCEP, 2 uM FeCl2, 0.1 mg/ml BSA, at pH 7.3. The reaction was conducted by pre-incubating the enzyme in the presence of inhibitor for 60 min at room temperature. The activity of the free enzyme was measured by adding the peptide, the 2-Oxoglutarate (see above for final concentrations), and Ascorbic Acid (1 mM final concentration). The enzymatic activity was quenched after 60 min by adding an excess of a tight binding inhibitor to the assay mixture. The amount of product released was measured by using a LC/MS system (Agilent HPLC with Applied Biosystems API3000 Mass Spectrometer).

Egl nine homolog 1, sequence (Q9GZT9 whole entry, the tested form may be a part): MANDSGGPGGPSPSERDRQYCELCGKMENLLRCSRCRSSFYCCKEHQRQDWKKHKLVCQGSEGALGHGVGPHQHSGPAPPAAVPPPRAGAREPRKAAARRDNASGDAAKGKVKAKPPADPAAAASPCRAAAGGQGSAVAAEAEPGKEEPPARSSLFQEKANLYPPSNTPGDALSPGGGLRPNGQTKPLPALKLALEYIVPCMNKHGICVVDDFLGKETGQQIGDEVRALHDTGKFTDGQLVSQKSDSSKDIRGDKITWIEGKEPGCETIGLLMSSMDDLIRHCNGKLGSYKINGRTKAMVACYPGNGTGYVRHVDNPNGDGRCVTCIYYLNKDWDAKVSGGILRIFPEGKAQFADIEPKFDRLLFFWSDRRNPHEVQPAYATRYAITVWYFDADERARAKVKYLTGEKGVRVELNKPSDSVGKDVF

| Compound | IC50 |
| --- | --- |
| CCN1CCC(NC(=O)c2ccc(-n3ncc(-c4ccnc(OC)c4)c3O)nc2)CC1 | 0.0776 µM |
| CC(C)(C)NC(=O)c1ccc(-n2ncc(-c3cccnc3)c2O)nc1 | 0.01 µM |
| COc1cc(-c2cnn(-c3ccc(C(=O)NCCC4CCCN4C)cn3)c2O)ccn1 (stereo unspecified) | 0.126 µM |
| CN1CCC(NC(=O)c2ccc(-n3ncc(-c4ccc(C#N)cc4)c3O)nc2)CC1=O (stereo unspecified) | 0.129 µM |
| COc1cc(C#N)ccc1-c1cnn(-c2ccc(C(=O)NCCC3CCCO3)cn2)c1O (stereo unspecified) | 0.0661 µM |
| COc1cc(-c2cnn(-c3ccc(C(=O)NCCCn4ccnc4)cn3)c2O)ccn1 | 0.0372 µM |
| CCN1CCC(CN(C)C(=O)c2ccc(-n3ncc(-c4ccc(C#N)cc4)c3O)nc2)C1 (stereo unspecified) | 0.0562 µM |
| COCCNC(=O)c1cnc(-n2ncc(-c3ccc(C#N)cc3)c2O)cc1C | 0.0977 µM |

Second part, the molecule after the results:

| IC50 | Compound |
| --- | --- |
| 0.0977 µM | COc1cc(-c2cnn(-c3ccc(C(=O)NCCCN4CCCC4)cn3)c2O)ccn1 |
| 0.0871 µM | COc1cc(-c2cnn(-c3ccc(C(=O)NCCCN4CCCCC4)cn3)c2O)ccn1 |
| 0.0513 µM | COc1cc(-c2cnn(-c3ccc(C(=O)NCCCN4CCCC4=O)cn3)c2O)ccn1 |
